Values after ≈ are worked out from the molar mass of the structure shown. Where a SMILES comes first, the peptide text is derived from it.
Assays:
[1] = HPTS assay of ionophoric activity in phospholipid vesicles; type: biochemical; settings: Table S1, HPTS assay
Protocol: The membrane activity of 1, 2, Cu[1]Cl2 and Cu[2]Cl2 was assessed in phospholipid vesicle membranes using 8-hydroxypyrene-1,3,6-trisulfonate (HPTS) assays. HPTS assays can show ionophoric activity that occurs via any combination of M^+/H^+ antiport, X^–/OH^– antiport, M^+/OH^– symport and X^–/H^+ symport.
The HPTS assays of 1, 2, Cu[1]Cl2 and Cu[2]Cl2 used 1 : 4 cholesterol : egg yolk phosphatidylcholine (EYPC) vesicles in MOPS buffer (pH 7.4) with 100 mM of an appropriate salt (e.g. KCl, KBr, NaCl), following previously reported procedures.[16] The resulting normalised data were fitted to pseudo first-order rate equations as an approximation (see the ESI ^†).[32] Although the change in fluorescence after the “burst phase” is likely to arise from multiple processes, including inter-vesicle transfer of foldamers,[33] this fitting allows the relative effectiveness of each compound to be compared.
CuCl2 was added at 2 min, followed by addition of 2.2 eq. EDTA at 3 min.
5.1 Preparation of large unilamellar vesicles for HPTS assays
The HPTS assays of 1, 2, Cu[1]Cl2 and Cu[2]Cl2 used 1:4 cholesterol:egg yolk phosphatidylcholine (EYPC) vesicles in MOPS buffer (pH 7.4) with 100 mM of an appropriate salt (e.g. KCl, KBr, NaCl).5 Aliquots of 1, 2, Cu[1]Cl2 or Cu[2]Cl2 dissolved in methanol were mixed with the vesicle suspensions for 60 s before adding a base pulse to change the external pH to 8.4.6 The resulting change in HPTS fluorescence was followed for 6 min, then Triton X-100 was added at 7 min to lyse the vesicles […]. Each assay was repeated three times on new vesicles. The resulting normalized data were fitted to pseudo first-order rate equations as an approximation (see the ESI), similar to the procedure of Regen and co-workers.7 Although the change in fluorescence after the “burst phase” is likely to arise from multiple processes, including inter-vesicle transfer of foldamers,8 this fitting allows the relative effectiveness of each compound to be compared.
Egg yolk phosphatidylcholine (EYPC, 64 μmol) and cholesterol (16 μmol) were dissolved in 2 mL chloroform (spectroscopic grade). The solvent was removed under reduced pressure resulting in a thin film of lipid on the inside wall of the round bottom flask, which was dried further under vacuum for 2 hours. 1.2 mL of a trisodium 8-hydroxypyrene-1,3,6-trisulfonate (HPTS, 100 mM, pH = 7.4) dye in (3-(N-morpholino) propanesulfonic acid) buffer (20 mM MOPS, 100 mM MX (M = K or Na, X = Cl, Br or NO3− adjusted to pH 7.4 using NaOH) were added to the lipid film. Afterwards, the thin film was detached from the sides of the flask by vortex mixing. The resulting lipid suspension was then extruded 19 times through an 800 nm polycarbonate membrane in an Avestin Liposofast extruder to give a suspension of 800 nm large unilamellar vesicles. Unencapsulated HPTS dye was removed by gel permeation chromatography on PD-10 SEC columns (Sephadex G-25). Hereby 1 mL of the 800 nm vesicle suspension was diluted to 2.5 mL with 20 mM MOPS buffer solution and loaded onto the GPC column. The suspension run onto the column, followed by 3.5 mL of 20 mM MOPS buffer, which were collected, giving a stock vesicle solution of 3.5 mL (final concentration of lipids = 15.23 mM). This solution of vesicles was used directly in the HPTS experiments.
5.2 Procedure for HPTS assays
100 μL of the vesicle stock solution was diluted to 2 mL with 20 mM MOPS buffer (final lipid concentration in cuvette 0.762 mM). To this vesicle suspension was then added 20 μL of the principle compound in methanol (1 mM or 0.6 mM for Cu[2]Cl2) and the cuvette was equipped with a stirrer bar. The cuvette was […]

Solubility = type: physicochemical; settings: under the haemolysis assay conditions (blood diluted with PBS, compound added from DMSO)
Description: Mixing 1 or 2 with CuCl2 or CuCl provided green or blue complexes respectively. […] The blue complexes from the addition of CuCl gave very broad NMR spectra even after preparing fresh samples, which was ascribed to in situ oxidation of Cu(I); Cu(I)(TPA) complexes are very efficient one electron donors and will rapidly reduce alkyl halides[27] and oxygen.[28] Furthermore these blue products gave green solids when dried (see the ESI, Fig. S2 ^†).
Although alamethicin is a very active channel former, its use in the clinic is hampered by its high haemolytic activity.[52] […] It is known that the haemolytic activity of amphipathic peptides, including alamethicin, decreases substantially on a reduction of peptide hydrophobicity and hydrophobic moment.[56]

**Q.** For `CC(C)(NC(=O)C(C)(C)NC(=O)C(C)(C)NC(=O)C(C)(C)NC(=O)C(C)(C)n1cc(CN(Cc2ccccn2)Cc2ccccn2)nn1)C(=O)NC(C)(C)C(=O)NC(C)(C)C(=O)NC(C)(C)C(=O)OCC[Si](C)(C)C` [foldamer 2] (HELM PEPTIDE1{[CC(C)(C(=O)[*:2])n1cc(CN(Cc2ccccn2)Cc2ccccn2)nn1].[Aib].[Aib].[Aib].[Aib].[Aib].[Aib].[Aib].[C[Si](C)(C)CCO[*:1]]}$$$$V2.0), which “Apparent observed rate constant kobs, KBr” value ([1]; 100 mM KBr, compound 10 µM) is on record?
**A.** The value was 4.0 10−3 s−1.

**Q.** What about the “Apparent observed rate constant kobs, KCl” value ([1]; 100 mM KCl, compound 10 µM) of the same compound?
**A.** Its value is 3.3 10−3 s−1.

**Q.** And the “Apparent observed rate constant kobs, KNO3” value ([1]; 100 mM KNO3, compound 10 µM)?
**A.** Its value is 3.2 10−3 s−1.

**Q.** And the “Apparent observed rate constant kobs, NaCl” value ([1]; 100 mM NaCl, compound 10 µM, methanol control 1 × 10−3 s−1)?
**A.** The value was 4.6 10−3 s−1.

**Q.** And the solubility limit (Solubility)?
**A.** Its solubility limit is 20 µM (≈ 21.2 µg/mL).
